The test system of experiment [1] is hTREM2-CV knock-in transgenic mice. The experiment is described as follows: Nanostring nCounter Murine Neuroinflammation panel, pathway analysis (PC1 scores) in hippocampi. In kind it is in vivo, mouse. The protocol: (§1) Nanostring analysis of gene expression profiles after administration of Example 192 and a TREM2 agonist antibody in a mouse model
(§2) To assess the impact of TREM2 agonism on cellular processes and pathways, the right hemisphere hippocampi from the acute dosing of the compound of Example 192 and […] Ab-1, as described in Example A3, were analyzed for gene expression changes. Cells from frozen hippocampi were lysed, and RNA was isolated. Key gene expression profiles were analyzed using the nCounter Murine Neuroinflammation panel of 770 genes related to inflammation in the CNS. Results of individual gene expression changes relative to the mean of several housekeeper genes were grouped in pathways of interest and assigned a relative score using the nSolver analysis software.
(§3) Nanostring nSolver software includes a module for Cell Type Profiling that identifies genes linked to cell type in an experiment. […] Pathway analysis was also performed. Genes associated with the adaptive immune response, innate immune response, microglia function, cytokine signalling, and cell cycle were all increased in hippocampi from animals treated with the compound of Example 192 and Ab-1. Table 22 reports the effects of the compound of Example 192 and Ab-1 on these genes, where the values reflect PC1 scores from principal component analysis of the gene set.

A further experiment deals with hTREM2 (Homo sapiens, UniProt Q9NZC2). Nature of the experiment: TREM2 activity by cellular Syk phosphorylation (AlphaScreen/AlphaLISA) in TREM2/DAP12-HEK cells, used for Examples 1-305. The class given is cell-based. Further details: expressed in transfected cells. The note with it: HEK293 Cells. Put shortly: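 Single-cell-cloned HEK293 cells overexpressing TREM2 and DAP12, seeded 20 h, exposed to test articles (1% final DMSO) for 45 min at room temperature. Lysates read for phospho-Syk (Tyr525/526) vs total Syk by AlphaScreen. Signal normalised as percent of control between isotype IgG and 100 nM anti-TREM2 antibody; 4-parameter logistic fit.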

In experiment [2] the test system is hTREM2-CV knock-in transgenic mice. Nature of the experiment: IP-10 and CCL2 expression in brain and plasma of mice after acute dosing (TREM2 target engagement, MSD V-PLEX). In kind it is in vivo, mouse. Conditions: 24 hours. The protocol:
IP-10 expression in the brain and plasma of mice after administration of Example 192 and a TREM2 agonist antibody
To test TREM2 target engagement in an acute dosing paradigm using the compound of Example 192 (5-(4-chloro-2-fluorophenyl)-2,3-dimethyl-7-((2R,4S)-2-(1-methyl-1H-pyrazol-4-yl) tetrahydro-2H-pyran-4-yl)pyrido[3,4-b]pyrazine), hTREM2-CV knock-in transgenic mice were dosed using oral gavage (PO) twice a day (0 and 10 h) followed by sample collection at 24 hours. 6 animals received the compound of Example 192 at 50 mg/kg, and 6 animals received vehicle only (2% Hydroxypropyl Methylcellulose, 1% Tween-80 in PBS). In the same experiment, an anti-hTREM2 Antibody Ab-1 was dosed intraperitoneally (IP) at 100 mg/kg (control was a non-binding matched IgG isotype control). Ab-1 is a murinized version of a human TREM2 agonist antibody, first described as an engineered variant of antibody 13E7 in PCT Application Publication WO2018/195506A1. Ab-1 has an HC according to SEQ ID NO:9, an LC according to SEQ ID NO:10, and exemplifies an anti-TREM2 antibody having the CDRs according to SEQ ID NOS:1-6. Twenty-four hours following the zero-hour dose, mice were humanely euthanized for blood collection prior to cardiac perfusion with PBS and brain harvest. Brains were micro dissected into right and left regions of interest (including the cortex and hippocampus) for independent processing of cytokine and mRNA expression profiles. Whole blood was collected into EDTA-containing vials to prevent coagulation, and centrifuged to isolate the plasma fraction before storage at −80° C. Right and left hemisphere cortices were flash frozen in liquid nitrogen and stored at −80° C. before lysis and homogenization.
Plasma and brain lysates were analyzed for IP-10 (CXCL10) and CCL2 (MCP1) expression using a Meso Scale Discovery (MSD) multi-array reader and V-PLEX kits per manufacturer's protocols.
The upregulation of IP-10 was more robust, and so IP-10 levels were analyzed in plasma from the same experiment.

Experiment [3] shares this test system. Nature of the experiment: Nanostring nCounter Murine Neuroinflammation panel, Cell Type Profiling scores in hippocampi. In kind it is in vivo, mouse. How it is done: as §1, §2, §3
Where [4] appears, read: PC1 score, mean score (standard deviation).
Setting [5] is: Example 192 50 mg/kg PO at 0 and 10 h, Ab-1 100 mg/kg IP, compared to vehicle-treated animals.
Setting [6] is: hippocampi after acute dosing, mean score (standard deviation).
[7] abbreviates: right hemisphere hippocampi, acute dosing as in Example A3.

Marks after values point to notes of the source that are not given here.

Sequence of hTREM2 (Q9NZC2 19-230): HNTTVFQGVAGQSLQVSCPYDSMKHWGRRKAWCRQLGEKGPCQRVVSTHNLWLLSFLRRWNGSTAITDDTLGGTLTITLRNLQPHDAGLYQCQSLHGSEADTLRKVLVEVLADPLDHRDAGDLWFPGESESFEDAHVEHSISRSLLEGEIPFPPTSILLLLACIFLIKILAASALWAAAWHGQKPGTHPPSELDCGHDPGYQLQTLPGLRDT
Sequence of hTREM2 (O43914 22-113 partner): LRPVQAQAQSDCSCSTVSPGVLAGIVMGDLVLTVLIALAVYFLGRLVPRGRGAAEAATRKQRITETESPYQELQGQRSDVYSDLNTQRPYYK

As a reminder, the EC50 is the midpoint of the concentration-response curve. A higher EC50 goes with weaker potency. Regarding `Cc1nc2cc([C@H]3CCO[C@@H](c4cnn(C)c4)C3)nc(-c3ccc(Cl)cc3F)c2nc1C` (single isomer, unassigned) [Example 192], in experiment [1] (setting [4]), the “Pathway Score Adaptive Immune Response” value is given as 0.639 (0.929) *, the “Pathway Score Cell Cycle” value is reported as 0.398 (0.414) *, the “Pathway Score Cytokine Signaling” value is on record as 0.180 (0.514) * and the “Pathway Score Innate Immune Response” value was 0.490 (0.674) *. Moreover, the “Pathway Score Microglia Function” value in experiment [1] (setting [4]) was 0.345 (0.908) *. In addition, in experiment [1] (acute dosing as in Example A3), the “genes associated with cell cycle” value is recorded as “increased”, the “genes associated with cytokine signalling” value is given as “increased”, the “genes associated with microglia function” value was “increased” and the “genes associated with the adaptive immune response” value is listed as “increased”. Also, the “genes associated with the innate immune response” value in experiment [1] (acute dosing as in Example A3) is recorded as “increased”. In addition, at hTREM2, the EC50 is ≤ 50 nM and the “hTREM2 Emax” value was “++++ (Emax>250)”. For the same molecule, in experiment [2] (50 mg/kg PO at 0 and 10 h), the “peripheral IP-10 levels in the plasma fraction” value is on record as “no apparent cytokine upregulation”. In experiment [2] (setting [5]), the “CCL2 (MCP1) in cortical lysates” value is “induced upregulation” and the “IP-10 (CXCL10) in cortical lysates” value is listed as “induced upregulation”. Moreover, in experiment [3] (setting [6]), the “Microglia Score (Cell Type Profiling)” value is 6.82 (0.090) *, the “astrocyte score (Cell Type Profiling)” value is 8.86 (0.077) and the “neuron score (Cell Type Profiling)” value is reported as 8.81 (0.185). Besides, in experiment [3] (setting [7]), the “astrocyte score (Cell Type Profiling)” value is recorded as “no change”; the “microglia score (Cell Type Profiling, microglial-associated genes)” value is given as “increase”; the “neuron score (Cell Type Profiling)” value is given as “no change”.

Source of the values: patent publication US11884675B2, “Heterocyclic compounds as triggering receptor expressed on myeloid cells 2 agonists and methods of use” (AMGEN INC., priority 2020, dated 2024).
